Laboratory results reported in patent publication US20240091366A1, “NOVEL ACID-SENSITIVE APTAMER TRIPTOLIDE CONJUGATE AND APPLICATIONS” (priority 2022, published 2024).
“And” between values parts separate entries of the source, which are not always exact repeats. Equal entries are not always repeated.

Columns and labels:
[1] = test system: breast cancer cells MDA-MB-231; test: In vivo antitumor activity, breast cancer xenograft in nude mice; set-up: species or system mouse; Tumor weight: unit not given here; conditions: MDA-MB-231 model, once every 2 days, 8 doses
From the text: The following are the in vivo activity studies conducted in different tumor-bearing mice:
The materials used in the experiments were the same as those tested in 5.1 Colon cancer cell lines, differing only in the tumor strains.
A PBS negative control group was set up.

[2] = test system: human normal hepatocytes LO2; test: MTT assay, cytotoxicity on normal cells; type: cell-based
Experimental: (§1) The same materials as those in Part II above are not repeated here, in addition to the following: human normal hepatocytes LO2, human embryonic kidney cells HEK293 were purchased from the Shanghai Cell Bank of the Chinese Academy of Sciences and preserved in our laboratory.
(§2) Take the […] LO2 and HEK293 cell lines from the liquid nitrogen tank, place them in a 37° C. water bath, wait for the frozen cells to melt into cell suspension, centrifuge the cells at 1000 r/min for 3 min, discard the supernatant, add 1 ml of fresh complete medium containing 10% fetal bovine serum and 1% double antibody to mix the cells, then add 5 ml of medium, gently and repeatedly blowing the cells with a pipette gun to make them mix well. Then add 5 ml of medium, blow the cells gently and repeatedly with a pipette gun to mix them well, and finally transfer the cell suspension to a […] and label the cell name, cell number, date of resuscitation and the operator's name, and place it in a cell culture incubator for cultivation. (HEK293 cell line was cultured with DMEM medium, LO2 cell line was cultured with RPMI1640 medium)
(§3) Take LO2 and HEK293 cells with good growth status, remove the medium, add 1 ml of sterile PBS to wash, add 1.5 ml of trypsin to digest the cells, about 2 min later the cells become round and fall off, add 1.5 ml of medium to terminate the digestion, transfer it to centrifugal tube, centrifuge at 1000 r/min for 3 min, discard the supernatant, add 1 ml of fresh medium to resuspend, then add fresh medium for 1:3 distribution to other culture dishes, and label the date of transmission and the number of generations. Place in the cell culture incubator for cultivation.
(§4) Take LO2 and HEK293 cells with good growth status, by the same operation as the cell passaging experiment, after cell resuspension, cell counting with hemocyte counting plate, with 3000 cells/well, plant in 96-well plate, after 24 h of cell culture, remove the original medium, add medium containing different concentrations of drugs and continue to cultivate for 48 hours. After 24 h of cell culture, the original medium was removed and the medium containing different concentrations of drugs was added to continue the culture for 48 hours. […] The above steps were repeated three times.

[3] = test system: human embryonic kidney cells HEK293; test: MTT assay, cytotoxicity on normal cells; type: cell-based
Experimental: as §1, §2, §3, §4

[4] = Body weight during administration, breast cancer model
Experimental: Specific experimental protocol: Female nude mice were reared for 6-7 weeks under standard environment, breast cancer cells MDA-MB-231 were suspended in serum-free medium, and each mouse was inoculated with 6*10^6 tumor cells. When the tumor volume reached 50-100 mm^3, the mice were randomly divided into 4 groups, and were injected with aptamer triptolide conjugate, triptolide, and aptamer by tail vein, respectively, 12 mice in each group. A PBS negative control group was set up. […] The drugs were administered once every 2 days for 8 consecutive doses, and the experiment was ended 24 hours after the last dose. At the end of the experiment, the animals were executed by breaking the cervical vertebrae, and the tumors were stripped and weighed to calculate the tumor growth inhibition rate of the drug. The t-test was used to compare the tumor weight, tumor volume, RTV and other indexes of the animals in each group.

[5] = LO2, 6.3 nM, 48 h, samples 1-3, 0.0063 µM
[6] = LO2, 12.5 nM, 48 h, samples 1-3, 0.0125 µM
[7] = LO2, 25.0 nM, 48 h, samples 1-3, 0.025 µM
[8] = LO2, 50.0 nM, 48 h, samples 1-3, 0.05 µM
[9] = LO2, 100.0 nM, 48 h, samples 1-3, 0.1 µM
[10] = LO2, 200.0 nM, 48 h, samples 1-3, 0.2 µM
[11] = HEK293, 6.3 nM, 48 h, samples 1-3, 0.0063 µM
[12] = HEK293, 12.5 nM, 48 h, samples 1-3, 0.0125 µM
[13] = HEK293, 25.0 nM, 48 h, samples 1-3, 0.025 µM
[14] = HEK293, 50.0 nM, 48 h, samples 1-3, 0.05 µM
[15] = HEK293, 100.0 nM, 48 h, samples 1-3, 0.1 µM
[16] = HEK293, 200.0 nM, 48 h, samples 1-3, 0.2 µM

Compound: CC(C)[C@]12O[C@H]1[C@@H]1O[C@]13[C@]1(O[C@H]1C[C@H]1C4=C(CC[C@@]13C)C(=O)OC4)[C@@H]2O [TP, Triptolide]
- RTV ([1]; 10 μM tail vein): 27.18 ± 47
- T/C (%) ([1]; 10 μM tail vein): 65.57%
- Tumor inhibition rate (%) ([1]; 10 μM tail vein): 31.78%
- Tumor weight ([1]; 10 μM tail vein): 2.34 ± 0.39
- RTV ([1]; 30 μM tail vein): 16.44 ± 31
- T/C (%) ([1]; 30 μM tail vein): 39.66%
- Tumor inhibition rate (%) ([1]; 30 μM tail vein): 48.40%
- Tumor weight ([1]; 30 μM tail vein): 1.77 ± 0.51
- RTV ([1]; 50 μM tail vein): 12.89 ± 55
- T/C (%) ([1]; 50 μM tail vein): 31.10%
- Tumor inhibition rate (%) ([1]; 50 μM tail vein): 74.05%
- Tumor weight ([1]; 50 μM tail vein): 0.89 ± 0.08
- inhibition at 0.0031 µM ([2]; Homo sapiens, Hepatocyte, 48 h, LO2, 3.1 nM, 48 h, samples 1-3, read-out: cell proliferation inhibition rate): 21.4%
- inhibition at 0.0063 µM ([2]; Homo sapiens, Hepatocyte, 48 h, LO2, 6.3 nM, 48 h, samples 1-3, read-out: cell proliferation inhibition rate): 32%
- inhibition at 0.0125 µM ([2]; Homo sapiens, Hepatocyte, 48 h, LO2, 12.5 nM, 48 h, samples 1-3, read-out: cell proliferation inhibition rate): 66.4%
- inhibition at 0.025 µM ([2]; Homo sapiens, Hepatocyte, 48 h, LO2, 25.0 nM, 48 h, samples 1-3, read-out: cell proliferation inhibition rate): 74.1%
- inhibition at 0.05 µM ([2]; Homo sapiens, Hepatocyte, 48 h, LO2, 50.0 nM, 48 h, samples 1-3, read-out: cell proliferation inhibition rate): 88.7%
- inhibition at 0.1 µM ([2]; Homo sapiens, Hepatocyte, 48 h, LO2, 100.0 nM, 48 h, samples 1-3, read-out: cell proliferation inhibition rate): 96.3%
- inhibition at 0.2 µM ([2]; Homo sapiens, Hepatocyte, 48 h, LO2, 200.0 nM, 48 h, samples 1-3, read-out: cell proliferation inhibition rate): 94%
- cell proliferation inhibition rate ([2]; LO2, 3.1 nM, 48 h, samples 1-3, 0.0031 µM): 23.3551 and 17.9111
- cell proliferation inhibition rate [2, 5]: 40.8401 and 42.6158
- cell proliferation inhibition rate [2, 6]: 59.2076 and 65.5783
- cell proliferation inhibition rate [2, 7]: 73.3084 and 73.3954
- cell proliferation inhibition rate [2, 8]: 87.4474 and 84.6990
- cell proliferation inhibition rate [2, 9]: 97.7552 and 82.0308
- cell proliferation inhibition rate [2, 10]: 99.8060 and 96.6312
- cell proliferation inhibition rate ([3]; HEK293, 3.1 nM, 48 h, samples 1-3, 0.0031 µM): 30.4489 and 32.7054
- cell proliferation inhibition rate [3, 11]: 53.1149 and 51.3265
- cell proliferation inhibition rate [3, 12]: 70.4830 and 71.1686
- cell proliferation inhibition rate [3, 13]: 73.0686 and 75.7495
- cell proliferation inhibition rate [3, 14]: 81.0372
- cell proliferation inhibition rate [3, 15]: 94.3972 and 99.2908
- cell proliferation inhibition rate [3, 16]: 95.3901 and 100.6383
- inhibition at 0.0031 µM ([3]; Homo sapiens, HEK293, 48 h, HEK293, 3.1 nM, 48 h, samples 1-3, read-out: cell proliferation inhibition rate): 35.1%
- inhibition at 0.0063 µM ([3]; Homo sapiens, HEK293, 48 h, HEK293, 6.3 nM, 48 h, samples 1-3, read-out: cell proliferation inhibition rate): 59.9%
- inhibition at 0.0125 µM ([3]; Homo sapiens, HEK293, 48 h, HEK293, 12.5 nM, 48 h, samples 1-3, read-out: cell proliferation inhibition rate): 69.3%
- inhibition at 0.025 µM ([3]; Homo sapiens, HEK293, 48 h, HEK293, 25.0 nM, 48 h, samples 1-3, read-out: cell proliferation inhibition rate): 79.5%
- inhibition at 0.05 µM ([3]; Homo sapiens, HEK293, 48 h, HEK293, 50.0 nM, 48 h, samples 1-3, read-out: cell proliferation inhibition rate): 89.5%
- inhibition at 0.1 µM ([3]; Homo sapiens, HEK293, 48 h, HEK293, 100.0 nM, 48 h, samples 1-3, read-out: cell proliferation inhibition rate): 99.9%
- inhibition at 0.2 µM ([3]; Homo sapiens, HEK293, 48 h, HEK293, 200.0 nM, 48 h, samples 1-3, read-out: cell proliferation inhibition rate): 98.3%
- body weights of mice ([4]; mouse, in vivo): basically maintained in the tolerable range of animal toxicity and side-effects

Compound: AS1411: nucleolin aptamer, single-stranded oligonucleotide, SEQ ID NO: 1 GGTGGTGGTGGTTGTGGTGGTGGTGG
- RTV ([1]; 10 μM tail vein): 39.29 ± 16
- T/C (%) ([1]; 10 μM tail vein): 94.79%
- Tumor inhibition rate (%) ([1]; 10 μM tail vein): 7.00%
- Tumor weight ([1]; 10 μM tail vein): 3.19 ± 0.27
- RTV ([1]; 30 μM tail vein): 37.55 ± 34
- T/C (%) ([1]; 30 μM tail vein): 90.59%
- Tumor inhibition rate (%) ([1]; 30 μM tail vein): 14.87%
- Tumor weight ([1]; 30 μM tail vein): 2.92 ± 0.39
- RTV ([1]; 50 μM tail vein): 35.19 ± 38
- T/C (%) ([1]; 50 μM tail vein): 84.90%
- Tumor inhibition rate (%) ([1]; 50 μM tail vein): 18.95%
- Tumor weight ([1]; 50 μM tail vein): 2.78 ± 0.41
- inhibitory effect on normal cells ([2]; LO2): no significant inhibitory effect
- cell proliferation inhibition rate [2, 5]: 2.1198 and 1.5844 and 2.2503
- cell proliferation inhibition rate [2, 6]: 3.1924 and 2.7446 and 2.0042
- cell proliferation inhibition rate [2, 7]: 4.5962 and 5.2695 and 5.1506
- cell proliferation inhibition rate [2, 8]: 7.3070 and 6.4174 and 7.0396
- cell proliferation inhibition rate [2, 9]: 7.6842 and 6.8369 and 7.5344
- cell proliferation inhibition rate [2, 10]: 8.3084 and 8.0987 and 13.5426
- inhibitory effect on normal cells ([3]; HEK293): no significant inhibitory effect
- cell proliferation inhibition rate [3, 11]: 1.4844 and 1.0633 and 2.0955
- cell proliferation inhibition rate [3, 12]: 2.3262 and 2.9846 and 3.9285
- cell proliferation inhibition rate [3, 13]: 4.6088 and 4.6251 and 5.5956
- cell proliferation inhibition rate [3, 14]: 5.9341 and 4.5183 and 7.0200
- cell proliferation inhibition rate [3, 15]: 9.5603 and 9.9858 and 6.6667
- cell proliferation inhibition rate [3, 16]: 13.0496 and 11.5603 and 7.0200
- body weights of mice ([4]; MDA-MB-231 model, during 8 times of administration): basically maintained in the tolerable range of animal toxicity and side-effects
